Six compounds from PubChem BioAssay (NCI) can be followed below.

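48-hour exposure; five concentrations; linearly interpolated endpoints. TGI: total growth inhibition.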

One may read the TGI as the concentration giving total growth inhibition. A high value points to lower sensitivity of the cells.

Among the test systems are SK-MEL-28 melanoma; HCT-15 colon; K-562 leukemia; OVCAR-4 ovarian; SK-MEL-2 melanoma; SK-MEL-5 melanoma; HL-60(TB) leukemia; LOX IMVI melanoma; MDA-N; M14 melanoma; U251 CNS; OVCAR-3 ovarian; SN12C renal; SR leukemia; KM12 colon; NCI-H23 lung; SNB-75 CNS; PC-3 prostate; RXF 393 renal; MOLT-4 leukemia.
Holding throughout (experiment): DTP human tumour cell line panel, 48 h

As to `COC(=O)/C=C\Sc1ccn(/C=C\C(=O)OC)c(=S)n1`, the total growth inhibition concentration (TGI) was over 100 µM with SK-MEL-28 melanoma; 42.6 µM with HCT-15 colon; over 100 µM in the assay with K-562 leukemia; 35.3 µM with OVCAR-4 ovarian; 46.9 µM in the assay on SK-MEL-2 melanoma; 80.6 µM in the assay on SK-MEL-5 melanoma. In addition, the TGI in the assay on HL-60(TB) leukemia is over 100 µM; in the assay with LOX IMVI melanoma it was 9.35 µM; in the assay with MDA-N, over 100 µM; with M14 melanoma, over 100 µM; in the assay with U251 CNS, 39.9 µM; in the assay with OVCAR-3 ovarian, 26.7 µM. In addition, the TGI in the assay on SN12C renal is 82.9 µM; in the assay on SR leukemia, 38.8 µM; with KM12 colon, 42.8 µM; in the assay with NCI-H23 lung it was 64.3 µM; with SNB-75 CNS, 43.1 µM; with PC-3 prostate it was 46.5 µM. In the assay with RXF 393 renal, this compound gave a TGI of 23.3 µM.
Take `O=C(CCCn1cnc([N+](=O)[O-])n1)NCCn1ccnc1[N+](=O)[O-]`: the TGI in the assay with SK-MEL-28 melanoma, with HCT-15 colon, in the assay with K-562 leukemia, with OVCAR-4 ovarian, in the assay on SK-MEL-2 melanoma and in the assay with SK-MEL-5 melanoma was over 100 µM in each case. Besides, the TGI in the assay on HL-60(TB) leukemia, with LOX IMVI melanoma, in the assay with MDA-N, with M14 melanoma, in the assay with U251 CNS and with OVCAR-3 ovarian was over 100 µM each time. Besides, the TGI in the assay with SR leukemia, in the assay on MOLT-4 leukemia, with KM12 colon, in the assay with NCI-H23 lung, in the assay with SNB-75 CNS and with PC-3 prostate was over 100 µM throughout. The compound further gave a total growth inhibition concentration (TGI) in the assay with RXF 393 renal of over 100 µM.
`CC(=O)OC(Cc1cc(C=C(C(F)(F)F)C(F)(F)F)cc(C)n1)(C(F)(F)F)C(F)(F)F`: the TGI was 2.85 µM with SK-MEL-28 melanoma; over 100 µM in the assay on HCT-15 colon; 4.28 µM in the assay with K-562 leukemia; 4.76 µM in the assay with OVCAR-4 ovarian; over 100 µM with SK-MEL-2 melanoma; 2.82 µM with SK-MEL-5 melanoma. For the same compound, the TGI was 1.18 µM in the assay with HL-60(TB) leukemia; 3.49 µM in the assay on LOX IMVI melanoma; 4.08 µM in the assay on M14 melanoma; 4.74 µM in the assay with U251 CNS; 3.57 µM in the assay on OVCAR-3 ovarian; 3.16 µM in the assay on SN12C renal. The TGI with KM12 colon was 2.98 µM; in the assay with NCI-H23 lung, 3.32 µM; with SNB-75 CNS it was 7.02 µM; in the assay on PC-3 prostate it was 5.34 µM; with RXF 393 renal it was 2.4 µM.
On to `CC1(C)OP23(NC(=O)OC2(C(F)(F)F)c2ccccc2O3)OC1(C)C` (centres undefined), for which the TGI in the assay with SK-MEL-28 melanoma, in the assay on HCT-15 colon, in the assay on K-562 leukemia, in the assay on OVCAR-4 ovarian, with SK-MEL-2 melanoma and with SK-MEL-5 melanoma was over 100 µM in each case. The TGI in the assay on HL-60(TB) leukemia, in the assay on LOX IMVI melanoma, with M14 melanoma, with U251 CNS, with OVCAR-3 ovarian and with SN12C renal was over 100 µM throughout. For the same compound, the TGI in the assay on MOLT-4 leukemia, in the assay with KM12 colon, with NCI-H23 lung, in the assay on SNB-75 CNS and in the assay on RXF 393 renal was over 100 µM in each case.
As to `COc1ccc2[nH]c(C(=O)N3CC(CCl)c4ccc(N)cc43)cc2c1` (centres undefined), the TGI is over 31.6 µM with SK-MEL-28 melanoma; over 50.4 µM in the assay with HCT-15 colon; 0.494 µM in the assay with K-562 leukemia; 0.609 µM in the assay with OVCAR-4 ovarian; 0.396 µM in the assay on SK-MEL-2 melanoma; 0.195 µM in the assay with SK-MEL-5 melanoma. Besides, the TGI was 0.631 µM in the assay with HL-60(TB) leukemia; 0.601 µM with LOX IMVI melanoma; 0.347 µM in the assay on MDA-N; 0.319 µM in the assay on M14 melanoma; over 31.6 µM in the assay on U251 CNS; 1.62 µM in the assay with SN12C renal. The total growth inhibition concentration (TGI) with SR leukemia was over 100 µM; in the assay on MOLT-4 leukemia, over 100 µM; with KM12 colon it was 0.406 µM; in the assay on NCI-H23 lung, 0.501 µM; in the assay on SNB-75 CNS, 0.475 µM; in the assay on PC-3 prostate, 10 µM. In the assay with RXF 393 renal, this compound returned a TGI of 0.251 µM.
Take `CN(C)c1ccc(N2C(=S)SC(=Nc3ccccc3)C2=Nc2ccccc2)cc1`: the TGI in the assay with SK-MEL-28 melanoma, in the assay with HCT-15 colon, with K-562 leukemia, with OVCAR-4 ovarian, in the assay on SK-MEL-2 melanoma and with SK-MEL-5 melanoma was over 100 µM throughout. Besides, the TGI with HL-60(TB) leukemia, in the assay on MDA-N, in the assay with M14 melanoma, in the assay on U251 CNS, with OVCAR-3 ovarian and with SN12C renal was over 100 µM throughout. The TGI in the assay with SR leukemia, with KM12 colon, in the assay with NCI-H23 lung, in the assay on SNB-75 CNS, in the assay with PC-3 prostate and in the assay with RXF 393 renal was over 100 µM each time.
